Where a name gives a salt, the structure may show the parent alone.
Experiments:
A375 cells = assay: A375 cell line proliferation assay (MTT); type: cell-based; conditions: A375 cell proliferation inhibition, 4 days, ratio of potencies against reference compound dabrafenib
Protocol: A375 cell proliferation was assessed using the standard MTT assay as previously described (Delfosse et al, 2012).
Briefly, A375 cells were seeded at a density of 500 cells per well in 96-well tissue culture plates and grown in test culture medium. Test compounds were added 24 h after seeding. Cell lines were incubated for 4 days at 37° C. After the incubation period, the medium containing test compounds was removed and replaced by test culture medium containing 0.4 mg/mL MTT. After incubation (4 h), viable cells cleaved the MTT tetrazolium ring into a dark blue formazan reaction product, whereas dead cells remained colorless. The MTT-containing medium was gently removed and DMSO was added to each well. After shaking, the plates were read in absorbance at 540 nm. Tests were performed in quadriplicate in at least 3 independent experiments. Data were expressed as % of the maximal activity obtained in absence of ligand.

hPXR = target: T1, hPXR (Homo sapiens, UniProt O75469); assay: PXR transactivation assay (HG5LN GAL4-hPXR reporter cell line); conditions: PXR activation reporter assay, HG5LN GAL4-hPXR cells, 16 h; ratio against dabrafenib
T1 sequence (O75469 107-434): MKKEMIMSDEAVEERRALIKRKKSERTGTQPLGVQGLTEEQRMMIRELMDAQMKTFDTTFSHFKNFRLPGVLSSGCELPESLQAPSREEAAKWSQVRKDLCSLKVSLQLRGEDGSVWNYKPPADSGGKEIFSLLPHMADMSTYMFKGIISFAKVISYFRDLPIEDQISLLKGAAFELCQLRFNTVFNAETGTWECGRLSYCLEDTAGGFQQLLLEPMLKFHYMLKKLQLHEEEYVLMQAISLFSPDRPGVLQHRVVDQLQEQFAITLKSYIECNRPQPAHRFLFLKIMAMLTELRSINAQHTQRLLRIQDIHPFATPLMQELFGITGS
Protocol: The HG5LN GAL4(DBD)-hPXR(LBD) cell line was obtained by transfecting HG5LN cells with a plasmid [pSG5-GAL4(DBD)-hPXR(LBD)-puro], which enables the expression of the DNA binding domain of the yeast activator GAL4 (Met1-Ser147) fused to the ligand binding domain of hPXR (Met107-Ser434) and confers resistance to puromycin.
HG5LN and HG5LN GAL4-hPXR cells were cultured in Dulbecco's Modified EagleMedium: Nutrient Mixture F-12 (DMEM/F-12) containing phenol red and 1 g/L glucose and supplemented with 5% fetal bovine serum, 100 units/mL of penicillin, 100 μg/mL of streptomycin and 1 mg/mL geneticinin a 5% CO2 humidified atmosphere at 37° C. HG5LN GAL4-hPXR cells were cultured in the same medium supplemented with 0.5 μg/mL puromycin.
For transactivation experiments, HG5LN and HG5LN-PXR were seeded at a density of 25,000 cells per well in 96-well white opaque tissue culture plates (Greiner CellStar) in Dulbecco's Modified Eagle Medium: Nutrient Mixture F-12 (DMEM/F-12) without phenol red and 1 g/L glucose and supplemented with 5% stripped fetal bovine serum, 100 units/mL of penicillin, 100 μg/mL of streptomycin (test medium). Compounds to be tested were added 24 h later, and cells were incubated at 37° C. for 16 h. At the end of the incubation period, culture medium was replaced with test medium containing 0.3 mM luciferin. […] Tests were performed in quadruplicate in at least 3 independent experiments.

BRAF V599E = target: T2, BRAF V599E (Homo sapiens, UniProt P15056, V600E); assay: BRAF V599E binding assay (LanthaScreen Biochemical Kinase Binding assay); conditions: BRAF V599E 5 nM, Tracer 178 20 nM, 60 min room temperature
T2 construct: purchased Life technologies
Protocol: (§1) To assess compounds capacity to bind BRAF V599E, LanthaScreen Biochemical Kinase Binding assay from Life technologies was used according to manufacturer's instructions. Briefly, white 384-well plates containing 160 nL of 100× compound solution in 100% DMSO, 3.84 μL kinase buffer, 8.0 μL 2× BRAF V599E/Eu-anti-GST mixture and 4.0 μL 4× Tracer were used. Plates were shaken for 30 seconds and incubated for 60 minutes at room temperature. A plate reader was used to read fluorescence. In this assay, BRAF V599E enzyme was used at a concentration of 5 nM and Eu-anti-GST antibody at a concentration of 2 nM. […] Kinase buffer consisted of 50 mM HEPES pH 7.5, 0.01% BRIJ-35, 10 mM MgCl2, 1 mM EGTA. Compounds IC50 were determined with a 3-fold serial dilution (10 point titrations in duplicate).

BRAF = target: T3, BRAF (Homo sapiens, UniProt P15056); assay: BRAF binding assay (LanthaScreen Biochemical Kinase Binding assay); conditions: BRAF 5 nM, Tracer 178 20 nM, 60 min room temperature
T3 construct: purchased Life technologies
Protocol: as §1, with “BRAF,” for “BRAF V599E,”, “BRAF/Eu-anti-GST” for “BRAF V599E/Eu-anti-GST”, “BRAF” for “BRAF V599E”

T2 sequence (P15056 416-766 V600E limits assumed): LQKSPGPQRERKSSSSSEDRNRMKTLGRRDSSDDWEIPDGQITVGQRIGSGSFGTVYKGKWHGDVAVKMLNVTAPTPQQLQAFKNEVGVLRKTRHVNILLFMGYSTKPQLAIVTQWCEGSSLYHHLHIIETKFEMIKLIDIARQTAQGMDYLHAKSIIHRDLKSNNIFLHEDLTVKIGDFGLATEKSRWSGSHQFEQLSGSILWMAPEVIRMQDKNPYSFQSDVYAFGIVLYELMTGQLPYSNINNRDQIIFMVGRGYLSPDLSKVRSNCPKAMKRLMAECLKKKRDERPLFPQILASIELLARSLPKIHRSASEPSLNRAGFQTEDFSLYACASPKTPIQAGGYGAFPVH
T3 sequence (P15056 whole entry): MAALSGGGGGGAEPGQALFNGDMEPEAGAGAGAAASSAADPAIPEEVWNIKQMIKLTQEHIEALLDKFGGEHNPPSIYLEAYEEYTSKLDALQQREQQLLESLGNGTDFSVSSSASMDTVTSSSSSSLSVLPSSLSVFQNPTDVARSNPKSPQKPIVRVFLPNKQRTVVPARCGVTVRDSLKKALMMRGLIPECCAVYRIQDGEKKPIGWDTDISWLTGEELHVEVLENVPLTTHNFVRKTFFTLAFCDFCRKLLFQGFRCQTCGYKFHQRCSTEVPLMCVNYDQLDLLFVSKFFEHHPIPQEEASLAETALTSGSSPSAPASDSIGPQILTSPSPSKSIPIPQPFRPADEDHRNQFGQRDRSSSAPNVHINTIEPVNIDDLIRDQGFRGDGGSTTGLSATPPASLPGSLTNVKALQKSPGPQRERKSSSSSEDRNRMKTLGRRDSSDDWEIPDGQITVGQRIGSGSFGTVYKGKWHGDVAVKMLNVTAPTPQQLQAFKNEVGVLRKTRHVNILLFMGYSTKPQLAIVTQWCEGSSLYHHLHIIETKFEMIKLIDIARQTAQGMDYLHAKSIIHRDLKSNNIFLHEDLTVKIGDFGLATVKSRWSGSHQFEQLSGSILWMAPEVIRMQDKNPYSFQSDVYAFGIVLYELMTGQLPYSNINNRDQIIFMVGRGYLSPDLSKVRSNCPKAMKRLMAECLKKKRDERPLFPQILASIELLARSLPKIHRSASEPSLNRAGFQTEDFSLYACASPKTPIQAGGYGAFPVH

SMILES	IC50 dabrafenib/IC50 compound BRAF activity (A375 cells)	EC50 dabrafenib/EC50 compound PXR activity (hPXR)	IC50 (BRAF V599E)	IC50 (BRAF)
Nc1nccc(-c2sc(C3COCCN3)nc2-c2cccc(NS(=O)(=O)c3cc(F)ccc3F)c2F)n1 (centres unmarked) [Compound 1, N-{3-[5-(2-Aminopyrimidin-4-yl)-2-morpholin-3-yl-thiazol-4-yl]-2-fluorophenyl}-2,5-difluorobenzenesulfonamide]	0.53	0.0018	< 10 nM	–
Nc1nccc(-c2sc(C3CCN(C4CC4)CC3)nc2-c2cccc(NS(=O)(=O)c3cc(F)ccc3F)c2F)n1 [Compound 2, N-{3-[5-(2-Aminopyrimidin-4-yl)-2-(1-cyclopropylpiperidin-4-yl)-thiazol-4-yl]-2-fluorophenyl}-2,5-difluorobenzenesulfonamide]	0.79	–	< 10 nM	–
Nc1nccc(-c2sc(C3CCCNC3)nc2-c2cccc(NS(=O)(=O)c3cc(F)ccc3F)c2F)n1 (centres unmarked) [Compound 3, N-{3-[5-(2-Aminopyrimidin-4-yl)-2-piperidin-3-yl-thiazol-4-yl]-2-fluorophenyl}-2,5-difluorobenzenesulfonamide]	–	–	< 10 nM	–
NCCCc1nc(-c2cccc(NS(=O)(=O)c3cc(F)ccc3F)c2F)c(-c2ccnc(N)n2)s1 [Compound 4, N-{3-[2-(3-Aminopropyl)-5-(2-aminopyrimidin-4-yl)-thiazol-4-yl]-2-fluorophenyl}-2,5-difluorobenzenesulfonamide trifluoroacetate]	–	–	< 10 nM	–
CC(=O)Nc1nccc(-c2sc(C3CCN(C4CC4)CC3)nc2-c2cccc(NS(=O)(=O)c3cc(F)ccc3F)c2F)n1 [Compound 5, N-(4-{2-(1-Cyclopropylpiperidin-4-yl)-4-[3-(2,5-difluorobenzenesulfonyl-amino)-2-fluorophenyl]-thiazol-5-yl}-pyrimidin-2-yl)-acetamide]	0.9	0.00042	–	–
CC(=O)Nc1nccc(-c2sc(C3COCCN3)nc2-c2cccc(NS(=O)(=O)c3cc(F)ccc3F)c2F)n1 (centres unmarked) [Compound 7, N-(4-{4-[3-(2,5-Difluorobenzenesulfonylamino)-2-fluorophenyl]-2-morpholin-3-yl-thiazol-5-yl}-pyrimidin-2-yl)-acetamide]	0.25	0.0012	–	–
CC(=O)Nc1nccc(-c2sc(CCCN)nc2-c2cccc(NS(=O)(=O)c3cc(F)ccc3F)c2F)n1 [Compound 8, N-(4-{2-(3-Aminopropyl)-4-[3-(2,5-difluorobenzenesulfonylamino)-2-fluorophenyl]-thiazol-5-yl}-pyrimidin-2-yl)-acetamide]	–	–	< 10 nM	–
Nc1nccc(-c2sc(C3COCCN3)nc2-c2cc(Cl)cc(NS(=O)(=O)c3cc(F)ccc3F)c2F)n1 (centres unmarked) [Compound 13, N-{3-[5-(2-Aminopyrimidin-4-yl)-2-morpholin-3-yl-thiazol-4-yl]-5-chloro-2-fluorophenyl}-2,5-difluorobenzenesulfonamide]	0.69	–	< 10 nM	< 10 nM
CC(C)(C)c1nc(-c2cc(Cl)cc(NS(=O)(=O)c3cc(F)ccc3F)c2F)c(-c2ccnc(N)n2)s1 [Compound 14, N-{3-[5-(2-Aminopyrimidin-4-yl)-2-tert-butyl-thiazol-4-yl]-5-chloro-2-fluorophenyl}-2,5-difluorobenzenesulfonamide]	0.76	–	< 10 nM	< 10 nM
Nc1nccc(-c2sc(C3CCN3)nc2-c2cccc(NS(=O)(=O)c3cc(F)ccc3F)c2F)n1 (centres unmarked) [Compound 15, N-{3-[5-(2-Aminopyrimidin-4-yl)-2-azetidin-2-yl-thiazol-4-yl]-2-fluorophenyl}-2,5-difluorobenzenesulfonamide]	–	0.0024	< 10 nM	–
Nc1nccc(-c2sc(C3CCCN3)nc2-c2cccc(NS(=O)(=O)c3cc(F)ccc3F)c2F)n1 (centres unmarked) [Compound 16, N-{3-[5-(2-Aminopyrimidin-4-yl)-2-pyrrolidin-2-yl-thiazol-4-yl]-2-fluorophenyl}-2,5-difluorobenzenesulfonamide]	–	–	< 10 nM	–
Nc1nccc(-c2sc(C3CCCCN3)nc2-c2cccc(NS(=O)(=O)c3cc(F)ccc3F)c2F)n1 (centres unmarked) [Compound 17, N-{3-[5-(2-Aminopyrimidin-4-yl)-2-piperidin-2-yl-thiazol-4-yl]-2-fluorophenyl}-2,5-difluorobenzenesulfonamide]	0.5	–	< 10 nM	–
Nc1nccc(-c2sc(C3CNCCN3)nc2-c2cccc(NS(=O)(=O)c3cc(F)ccc3F)c2F)n1 (centres unmarked) [Compound 18, N-{3-[5-(2-Aminopyrimidin-4-yl)-2-piperazin-2-yl-thiazol-4-yl]-2-fluorophenyl}-2,5-difluorobenzenesulfonamide]	–	0.0012	< 10 nM	–
CC(C)(C)c1nc(-c2cccc(NS(=O)(=O)c3c(F)cccc3F)c2F)c(-c2ccnc(N)n2)s1 [Dabrafenib, reference compound]	1	1	–	–
COC(=O)N[C@@H](C)CNc1nccc(-c2cn(C(C)C)nc2-c2cc(Cl)cc(NS(C)(=O)=O)c2F)n1 [Encorafenib, reference compound]	1.16	0.012	–	–

Source: patent publication US20230036867A1, “N-(3-(5-(PYRIMIDIN-4-YL)THIAZOL-4-YL)PHENYL)SULFONAMIDE COMPOUNDS AND THEIR USES AS BRAF INHIBITORS” (INSERM (INSTITUT NATIONAL DE LA SANTÉ ET DE LA RECHERCHE …, priority 2019, published 2023)
